These results are taken from US11666561B2, “Compounds for use in regulating follicle maturation” (AARHUS UNIVERSITET, priority 2017, dated 2023).

Counter-ions that a name gives are not always drawn.

This assay has as its system primordial-to-primary follicle transition. Description: In vitro organ culture of mouse ovaries with compound, H&E histology and counting of primordial, primary and secondary follicles. As for the experimental part: Ovaries obtained from mice were washed twice with culture medium. Antagonists or agonists to be tested were dissolved in suitable solvents and added to the medium. As a control medium comprising solvent without the antagonist or agonist was used. One of the ovaries was cultured in a control medium and another was cultured with the antagonist or agonist. The tested antagonists or agonists and their concentrations are outlined in table 2.
Ovaries were incubated with antagonist at 37° C. and 5% CO2 for 24 and 96 hours, respectively (see table 3).
Cultures ovaries were fixed, embedded in paraffin and sliced microscopy. The sectioned ovaries were stained with hematoxylin and eosin (H&E) to visualize the morphology of the ovary by microscopy.
The number of primordial, primary and secondary follicles was determined, and it was determined whether the antagonist or agonist was capable of regulating folliculogenesis.
C57BL/6j×CBA F1 hybrid mice (Janvier Labs, France) were housed and bred in the animal facilities at Department of Biomedicine, Aarhus University. Animals were housed in a 12:12 h controlled light-dark environment and were provided with food and water ad libitum. 7-day-old female pups were used for the study.
Pups were sacrificed and ovaries were excised. Using a stereomicroscope MZ75 (Leica Microsystems, Germany), excess tissue was removed. During the dissection, ovaries were kept at 37° C. in culture medium: aMEM (Thermo Fisher) supplemented with 10% FBS (Thermo Fisher), 100 mIU/mL of FSH (Sigma-Aldrich), 100 IU/mL penicillin (Thermo Fisher), 100 μg/mL streptomycin (Thermo Fisher) and 1% Insulin-Transferrin-Selenium (Thermo Fisher). Isolated ovaries were transferred into well inserts (PET membrane ThinCert, 0.4 μm-pore size; Greiner bio-one) in 24-well plates (Tissue culture treated, cell culture plates; Costar). 200-300 μL of culture medium was added to the well below the insert and up to two ovaries were placed on the membrane of each insert. The culture medium was supplemented with different concentrations of the tested compounds; bpV(HOpic) (Sigma-Aldrich), Temsirolimus (Sigma-Aldrich), Ketotifen (Sigma-Aldrich), 3PO (Sigma-Aldrich), Dorsomorphin (Sigma-Aldrich), AICAR (Sigma-Aldrich), NCG (Sigma-Aldrich), and Dyphylline (Cayman Chemical). Up to six wells in the 24-well plate were used for inserts. Sterile dH2O was added to the rest of the wells to ensure humidity and reduce evaporation. The ovaries were cultured at 37° C., 5% CO2 for four days. 150 μL of medium was replaced every other day with fresh culture medium.
Ovaries kept in organ culture for four days were fixed for 24 hours in 4% paraformaldehyde solution at 4° C. After fixation, ovaries were dehydrated in ethanol series using 70%, 96% and 99.9% ethanol. Xylene was used as clearing agent before the ovaries were infiltrated in paraffin wax. 5 μm-sections of samples in paraffin were cut using a microtome (Cut 6062, SLEE medical, Germany). Paraffin sections were mounted on glass slides, paraffin was melted at 60° C., and the samples were stained with hematoxylin and eosin (using standard protocols).
The samples were deparaffinized by incubating in xylene for 2×15 min. and subsequently rehydrated in series of ethanol; 3×2 min. in 99.9% ethanol, 2 min. in 96% ethanol, and 2 min. in 70% ethanol. The samples were then rinsed in dH2O, stained in hematoxylin for 40 sec., rinsed in dH2O for 5 min., and stained in eosin for 46 sec. The samples were dehydrated in ethanol: 2×2 min. in 96% ethanol, 2×2 min in 99.9% ethanol, and finally cleared up in xylene for at least 30 min before mounting the samples using Eukitt mounting medium (Sigma-Aldrich) and cover glass.
The number of follicles at each developmental stage was counted using an inverted research microscope (DM14000B, Leica Microsystems, Germany). The follicles of every 3rd to 4th section of each ovary were counted and the distribution of follicles in the different stages in percentage was determined.

The mark [1] stands for this setting: 1.0 μM Trigonellin hydrochloride, 96 hours.

As for `O=C(O)c1cc(N(Cc2ccccc2O)Cc2cc(O)ccc2O)ccc1O` [Lavendustin, 5-amino-((N-2,5-dihydroxybenzyl)-N′-2-hydroxybenzyl)aminosalicylic acid], the Effect result (Table 1, marked (ongoing)) is “promotes” and the Effect entry (Table 2, marked (ongoing)) is listed as “promotes”.
Turning to `C[n+]1cccc(C(=O)[O-])c1` [Trigonellin hydrochloride], under setting [1], the “decrease in the average numbers of primordial follicles compared to the control” value is reported as approximately 20% and the “increase compared to the control (follicle stage not given)” value was approximately 74%.
`CC(C)c1cc(CNc2nc(Nc3cc(C4CC4)[nH]n3)cc(N3CCN(C)CC3)n2)on1` [XL228, 4-N-(5-cyclopropyl-1H-pyrazol-3-yl)-6-(4-methylpiperazin-1-yl)-2-N-[(3-propan-2-yl-1,2-oxazol-5-yl)methyl]pyrimidine-2,4-diamine]: the Effect entry is on record as “promotes” (Table 1, marked (ongoing)) and “promotes” (Table 2, marked (ongoing)).
Regarding `Nc1ccn([C@@H]2O[C@H](CO)[C@@H](O)[C@@H]2O)c(=O)n1` [MK-8242, 4-amino-1-[(2R,3S,4S,5R)-3,4-dihydroxy-5-(hydroxymethyl)oxolan-2-yl]pyrimidin-2-one], the Effect result (Table 1, marked (ongoing)) is given as “promotes” and the Effect entry (Table 2, marked (ongoing)) is on record as “promotes”.
On to `CC(C)[C@@H](CS(=O)(=O)C(C)C)N1C(=O)[C@@](C)(CC(=O)O)C[C@H](c2cccc(Cl)c2)[C@H]1c1ccc(Cl)cc1` [AMG-232, 2-[(3R,5R,6S)-5-(3-chlorophenyl)-6-(4-chlorophenyl)-3-methyl-1-[(2S)-3-methyl-1-propan-2-ylsulfonylbutan-2-yl]-2-oxopiperidin-3-yl]acetic acid], for which the Effect result is “promotes” (Table 1, marked (ongoing)) and “promotes” (Table 2, marked (ongoing)).
In the case of `CN1CCC(=C2c3ccccc3CC(=O)c3sccc32)CC1` [Ketotifen, 4,9-dihydro-4-(1-methyl-4-piper-idylidende)-10H-benzo(4,5)cyclohepta(1,2,b)thiophen-10-one], where the note is “85 nM Ketotifen, 96 hours”, the “less primary follicles than control” value was approximately 44%, the “less secondary follicles than control” value is listed as approximately 65% and the “more primordial follicles than control” value is listed as “approximately 9%”. Moreover, the Effect result (Table 1, effect with a figure cited) was “inhibits follicle”. The Effect result (Table 2, effect with a figure cited) was “inhibits follicle”. For the same molecule, where the note is “in vitro cultured mouse ovaries, concentration not given”, the “effect on primordial-to-primary follicle transition / primordial follicle activation” value is “significantly more primordial follicles”.

B1: BI 836845: humanised IgG1 monoclonal antibody that binds to and neutralises IGF-1 and IGF-2 (antibody, chains of the INN, looked up, V domains shown)
VH: QVELVESGGGLVQPGGSLRLSCAASGFTFTSYWMSWVRQAPGKGLELVSSITSYGSFTYYADSVKGRFTISRDNSKNTLYLQMNSLRAEDTAVYYCARNMYTHFDSWGQGTLVTVSS
VL: DIVLTQPPSVSGAPGQRVTISCSGSSSNIGSNSVSWYQQLPGTAPKLLIYDNSKRPSGVPDRFSGSKSGTSASLAITGLQSEDEADYYCQSRDTYGYYWVFGGGTKLTVL
For B1, the Effect entry (Table 1, marked (ongoing)) was “promotes” and the Effect entry (Table 2, marked (ongoing)) is on record as “promotes”.

B2: MM-141: tetravalent bispecific antibody targeting IGF-1 receptor and ERBB3 (antibody, chains of the INN, looked up, V domains shown)
VH: EVQLLQSGGGLVQPGGSLRLSCAASGFMFSRYPMHWVRQAPGKGLEWVGSISGSGGATPYADSVKGRFTISRDNSKNTLYLQMNSLRAEDTAVYYCAKDFYQILTGNAFDYWGQGTTVTVSS
VL: DIQMTQSPSSLSASLGDRVTITCRASQGISSYLAWYQQKPGKAPKLLIYAKSTLQSGVPSRFSGSGSGTDFTLTISSLQPEDSATYYCQQYWTFPLTFGGGTKVEIK
VH2: QVQLVQSGGGLVQPGGSLRLSCAASGFTFDDYAMHWVRQAPGKGLEWVAGISWDSGSTGYADSVKGRFTISRDNAKNSLYLQMNSLRAEDTALYYCARDLGAYQWVEGFDYWGQGTLVTVSS
VL2: SYELTQDPAVSVALGQTVRITCQGDSLRSYYASWYQQKPGQAPVLVIYGKNNRPSGIPDRFSGSTSGNSASLTITGAQAEDEADYYCNSRDSPGNQWVFGGGTKVTVL
For B2, the Effect result (Table 1, marked (ongoing)) is “promotes” and the Effect entry (Table 2, marked (ongoing)) was “promotes”.
